In this experiment the test system is clot lysis (fibrinolysis) in human citrated plasma, tPA-induced. As to the kind of experiment: Plasma-based clot lysis assay (5%). It counts as biochemical. The following applies: diluted human citrated plasma (platelet-poor, 5%), fibrinogen 3 μM, CaCl2 10 mM, tPA 0.2 nM, 37° C., OD 405 nm. The procedure:
B-2. Plasma-based Clot Lysis Assay (5%)
The clot-lysis test system configures the kinetics of clot formation and degradation in vitro and allows quantifying modulation of the process by selected test compounds.
The test compounds were dissolved in 1% acetic acid and further complemented with an equal volume of DMSO. The resulting stock solutions were serially diluted in 0.5% acetic acid/50% DMSO. 1 μL aliquots of these solutions were placed into 384 well microplates (Greiner, black, transparent bottom), followed by 30 μL of diluted human citrated plasma (platelet-poor, final concentration: 5%; supplemented with fibrinogen, final concentration: 3 μM; dilution buffer: 20 mM HEPES, 150 mM NaCl, 0.01% Brij (pH 7)). The reactions were started by addition of […] of CaCl2 (final concentration: 10 mM), and tPA (tissue plasminogen activator, final concentration: 0.2 nM) in dilution buffer, followed by an additional volume of 20 μL dilution buffer for improved mixing. The reactions were incubated at 37° C. Clot formation and degradation was monitored spectrophotometrically by kinetic optical density measurements at 405 nm. IC50 values were determined by comparing the resulting time courses with the time course of a blank control reaction.

Where a name gives a salt, the structure may show the parent alone.

In the case of `O=c1cc(C2CCNCC2)n2nc3cc(C(F)(F)F)cc([N+](=O)[O-])c3c2[nH]1` [Example 31, 10-Nitro-4-(piperidin-4-yl)-8-(trifluoromethyl)pyrimido[1,2-b]indazol-2(1H)-one hydrochloride], the IC50 (in general, the concentration that inhibits the measured activity by half) was 97 nM.

Regarding `Cc1cc(C)c2c(n1)nn1c(C3CCNCC3)cc(=O)[nH]c21` [Example 32, 8,10-Dimethyl-4-(piperidin-4-yl)pyrido[2′,3′:3,4]pyrazolo[1,5-a]pyrimidin-2(1H)-one hydrochloride], it took 210 nM to reach half-maximal inhibition (IC50).

Consider `N#Cc1cccc2nn3c(C4CCNCC4)cc(=O)[nH]c3c12` [Example 33, 2-Oxo-4-(piperidin-4-yl)-1,2-dihydropyrimido[1,2-b]indazole-10-carbonitrile trifluoroacetate], for which the midpoint of inhibition (trifluoroacetate), the IC50, lay at 21 nM.

In turn, `Cc1cccc2nn3c(C4CCNCC4)cc(=O)[nH]c3c12` [Example 36, 10-Methyl-4-(piperidin-4-yl)pyrimido[1,2-b]indazol-2(1H)-one hydrochloride] showed an IC50 of 18 nM.

On to `O=c1cc(C2CCNCC2)n2nc3cccc(OC(F)(F)F)c3c2[nH]1` [Example 37, 4-(Piperidin-4-yl)-10-(trifluoromethoxy)pyrimido[1,2-b]indazol-2(1H)-one hydrochloride], for which the IC50 is 44 nM.

Consider `O=c1cc(C2CCNCC2)n2nc3nccnc3c2[nH]1` [Example 38, 7-(Piperidin-4-yl)pyrazino[2′,3′:3,4]pyrazolo[1,5-a]pyrimidin-9(10H)-one hydrochloride], for which the IC50 is 60 nM.

For the molecule `O=c1cc(C2CCNCC2)n2nc3cc(Cl)ccc3c2[nH]1` [Example 39, 8-Chloro-4-(piperidin-4-yl)pyrimido[1,2-b]indazol-2(1H)-one hydrochloride], the IC50 was found to be 24 nM. This IC50 lies about 2.5-fold lower than the previous one.

As for `CN(C)c1ccnc2nn3c(C4CCNCC4)cc(=O)[nH]c3c12` [Example 40, 10-(Dimethylamino)-4-(piperidin-4-yl)pyrido[2′,3′:3,4]pyrazolo[1,5-a]pyrimidin-2(1H)-one hydrochloride], the IC50 turned out to be 38 nM.

Molecule `O=c1cc(C2CCNCC2)n2nc3cc(C(F)(F)F)cc(Cl)c3c2[nH]1` [Example 41, 10-Chloro-4-(piperidin-4-yl)-8-(trifluoromethyl)pyrimido[1,2-b]indazol-2(1H)-one hydrochloride] yielded an IC50 of 23 nM. This IC50 is about 1.7-fold lower than that of the molecule before.

With `O=c1cc(C2CCNCC2)n2nc3nc(-c4ccc(F)cc4)cc(C(F)(F)F)c3c2[nH]1` [Example 42, 8-(4-Fluorophenyl)-4-(piperidin-4-yl)-10-(trifluoromethyl)pyrido[2′,3′:3,4]pyrazolo[1,5-a]pyrimidin-2(1H)-one hydrochloride], it took 110 nM to reach half-maximal inhibition (IC50).

For `O=c1cc(C2CCNCC2)n2nc3cncc(Br)c3c2[nH]1` [Example 43, 10-Bromo-4-(piperidin-4-yl)pyrido[3′,4′:3,4]pyrazolo[1,5-a]pyrimidin-2(1H)-one hydrochloride], the IC50 came out at 100 nM.

On to `O=c1cc(C2CCNCC2)n2nc3nc(-c4ccccc4)ccc3c2[nH]1` [Example 44, 8-Phenyl-4-(piperidin-4-yl)pyrido[2′,3′:3,4]pyrazolo[1,5-a]pyrimidin-2(1H)-one hydrochloride], for which the IC50 was 48 nM. This IC50 lies about 2.1-fold lower than the previous one.

`O=c1cc(C2CCNCC2)n2nc3ncc(-c4ccccc4)cc3c2[nH]1` [Example 45, 9-Phenyl-4-(piperidin-4-yl)pyrido[2′,3′:3,4]pyrazolo[1,5-a]pyrimidin-2(1H)-one hydrochloride] showed an IC50 of 37 nM.

In turn, `O=c1cc(C2CCNCC2)n2nc3nccc(-c4ccccc4)c3c2[nH]1` [Example 46, 10-Phenyl-4-(piperidin-4-yl)pyrido[2′,3′:3,4]pyrazolo[1,5-a]pyrimidin-2(1H)-one hydrochloride] returned an IC50 of 17 nM.

On to `Cc1ccnc2nn3c(C4CCNCC4)cc(=O)[nH]c3c12` [Example 47, 10-methyl-4-(piperidin-4-yl)pyrido[2′,3′:3,4]pyrazolo[1,5-a]pyrimidin-2(1H)-one hydrochloride], for which inhibition was half-maximal at 24 nM (IC50).

In turn, `O=c1cc(C2CCNCC2)n2nc3ccc(I)cc3c2[nH]1` [Example 48, 9-Iodo-4-(piperidin-4-yl)pyrimido[1,2-b]indazol-2(1H)-one hydrochloride] showed an IC50 of 36 nM.

`O=c1cc(C2CCNCC2)n2nc3ccncc3c2[nH]1` [Example 49, 4-(Piperidin-4-yl)pyrido[4′,3′:3,4]pyrazolo[1,5-a]pyrimidin-2(1H)-one]: 36 nM corresponded to half-maximal inhibition (IC50).

In the case of `C[C@H]1C[C@H](c2cc(=O)[nH]c3c4c(Br)cccc4nn23)CCN1` [Example 50, (−)-trans-10-Bromo-4-(2-methylpiperidin-4-yl)pyrimido[1,2-b]indazol-2(1H)-one hydrochloride], the IC50 was 14 nM.

In turn, `C[C@H]1C[C@H](c2cc(=O)[nH]c3c4c(-c5ccccc5)ccnc4nn23)CCN1` [Example 51, (−)-trans-4-(2-Methylpiperidin-4-yl)-10-phenylpyrido[2′,3′:3,4]pyrazolo[1,5-a]pyrimidin-2(1H)-one hydrochloride] gave an IC50 of 15 nM. The IC50 values of the last two molecules are within 1.5-fold of each other.

In turn, `CCOc1cccc2nn3c([C@@H]4CCN[C@@H](C)C4)cc(=O)[nH]c3c12` [Example 52, (−)-trans-10-Ethoxy-4-(2-methylpiperidin-4-yl)pyrimido[1,2-b]indazol-2(1H)-one hydrochloride] gave an IC50 of 13 nM.

The molecule `N#Cc1cccc2nn3c(C4CCNCC4)cc(=O)[nH]c3c12` [Example 53, 2-Oxo-4-(piperidin-4-yl)-1,2-dihydropyrimido[1,2-b]indazole-10-carbonitrile hydrochloride] yielded an IC50 (hydrochloride) of 10 nM.

In turn, `COc1ccc(-c2cccc3nn4c(C5CCNCC5)cc(=O)[nH]c4c23)cc1` [Example 54, 10-(4-Methoxyphenyl)-4-(piperidin-4-yl)pyrimido[1,2-b]indazol-2(1H)-one hydrochloride] showed an IC50 of 15 nM. In other words, the double-digit nanomolar range.

For the molecule `O=c1cc(C2CCNCC2)n2nc3cccc(-c4ccc(C(F)(F)F)cc4)c3c2[nH]1` [Example 55, 4-(Piperidin-4-yl)-10-[4-(trifluoromethyl)phenyl]pyrimido[1,2-b]indazol-2(1H)-one hydrochloride], the IC50 turned out to be 14 nM.

`O=c1cc(C2CCNCC2)n2nc3cccc(-c4ccccc4)c3c2[nH]1` [Example 56, 10-Phenyl-4-(piperidin-4-yl)pyrimido[1,2-b]indazol-2(1H)-one hydrochloride]: the IC50 came to 14 nM. In other words, the double-digit nanomolar range.

Where the note is “hydrochloride”, `O=c1cc(C2CCNCC2)n2nc3cccc(-c4ccccc4F)c3c2[nH]1` [Example 57, 10-(2-Fluorophenyl)-4-(piperidin-4-yl)pyrimido[1,2-b]indazol-2(1H)-one hydrochloride] showed an IC50 of 13 nM. In other words, the double-digit nanomolar range.

Regarding `O=c1cc(C2CCNCC2)n2nc3cccc(-c4cccnc4)c3c2[nH]1` [Example 58, 4-(Piperidin-4-yl)-10-(pyridin-3-yl)pyrimido[1,2-b]indazol-2(1H)-one hydrochloride], half-maximal inhibition (IC50) was put at 15 nM.

For the molecule `O=c1cc(C2CCNCC2)n2nc3cccc(-c4ccncc4)c3c2[nH]1` [Example 59, 4-(Piperidin-4-yl)-10-(pyridin-4-yl)pyrimido[1,2-b]indazol-2(1H)-one hydrochloride], 16 nM corresponded to half-maximal inhibition (IC50). The IC50 values of the last two molecules are within 1.5-fold of each other.

The molecule `O=c1cc(C2CCNCC2)n2nc3cccc(Br)c3c2[nH]1` [Example 60, 10-Bromo-4-(piperidin-4-yl)pyrimido[1,2-b]indazol-2(1H)-one hydrochloride] came in with an IC50 (hydrochloride) of 14 nM.

The molecule `O=c1cc(C2CCNCC2)n2nc3cccc(C4CC4)c3c2[nH]1` [Example 61, 10-Cyclopropyl-4-(piperidin-4-yl)pyrimido[1,2-b]indazol-2(1H)-one hydrochloride] yielded an IC50 of 24 nM.

With `CC(C)c1cccc2nn3c(C4CCNCC4)cc(=O)[nH]c3c12` [Example 62, 10-Isopropyl-4-(piperidin-4-yl)pyrimido[1,2-b]indazol-2(1H)-one hydrochloride], the IC50 was determined as 18 nM.

Turning to `O=c1cc(C2CCNCC2)n2nc3cccc(C4CCCC4)c3c2[nH]1` [Example 63, 10-Cyclopentyl-4-(piperidin-4-yl)pyrimido[1,2-b]indazol-2(1H)-one hydrochloride], the IC50 came out at 13 nM.

For `O=c1cc(C2CCNCC2)n2nc3cccc(-c4ccccc4Cl)c3c2[nH]1` [Example 64, 10-(2-Chlorophenyl)-4-(piperidin-4-yl)pyrimido[1,2-b]indazol-2(1H)-one hydrochloride], the IC50 was 19 nM.

On to `COc1ccccc1-c1cccc2nn3c(C4CCNCC4)cc(=O)[nH]c3c12` [Example 65, 10-(2-Methoxyphenyl)-4-(piperidin-4-yl)pyrimido[1,2-b]indazol-2(1H)-one hydrochloride], for which the IC50 was 25 nM.

For the molecule `O=c1cc(C2CCNCC2)n2nc3cccc(Cl)c3c2[nH]1` [Example 66, 10-Chloro-4-(piperidin-4-yl)pyrimido[1,2-b]indazol-2(1H)-one], the IC50 worked out at 15 nM.

On to `O=c1cc(C2CCNCC2)n2nc3cccc(-c4ccccc4C(F)(F)F)c3c2[nH]1` [Example 67, 4-(Piperidin-4-yl)-10-[2-(trifluoromethyl)phenyl]pyrimido[1,2-b]indazol-2(1H)-one hydrochloride], for which the IC50 came out at 13 nM.

Values taken from patent US10098883B2, “(Aza)pyridopyrazolopyrimidinones and indazolopyrimidinones and their use” (BAYER PHARMA AKTIENGESELLSCHAFT, priority 2013, dated 2018).
